Results from US12172975B2, “1H-indazole carboxamides as receptor-interacting protein kinase 1 inhibitors (RIPK1)” (BRISTOL-MYERS SQUIBB COMPANY, priority 2018, dated 2024).
Where a name gives a salt, the structure may show the parent alone. Read-outs that look alike come from different tables or passages of the source.

System: MLKL phosphorylation in HT29-L23 human colorectal adenocarcinoma cells
Assay: MLKL Phosphorylation High-Content Assay
Assay type: cell-based
Details: necroptosis induced with TNFα, SMAC mimetic and Z-VAD, 6 h, read-out: pMLKL (IC50)
Experimental: MLKL Phosphorylation High-Content Assay
HT29-L23 human colorectal adenocarcinoma cells were maintained in RPMI 1640 medium containing 10% heat-inactivated FBS, 1% Penicillin-Streptomycin and 10 mM HEPES. Cells were seeded at 2,000 cells/well in 384 well tissue culture-treated microplates (Greiner #781090-3B) and incubated at 37° C. (5% CO2/95% O2) for 2 d. […] (5% CO2/95% O2). Necroptopsis was induced using a mixture of human TNFα (35 ng/mL) (Peprotech #300-01A), SMAC mimetic (from US 2015/0322111 A1) (700 nM) and Z-VAD ([…]) (BD pharmingen #51-6936). Following 6 h incubation at 37° C. (5% CO2/95% O2), the cells were fixed with 4% formaldehyde (ACROS 11969-0010) for 15 min at rt, then permeabilized with phosphate buffered saline (PBS) containing 0.2% Triton-X-100 for 10 min. MLKL phosphorylation was detected using anti-MLKL (phospho S358) antibody (Abeam #ab 187091) (1:1000 dilution in Blocking Buffer [PBS supplemented with 0.1% BSA]) with ON incubation at 4° C. After washing three times in PBS, goat anti-rabbit Alexa-488 (1:1000 dilution) (Life Technologies, A11008) and Hoechst 33342 (Life Technologies, H3570) (1:2000 dilution) in Blocking Buffer were added for 1 h at rt.
Following another three cycles of washes in PBS, the microplates were sealed, and cellular images were acquired in the Cellomics ArrayScan VTI high-content imager equipped with an X1 camera. Fluorescent images were taken using a 10× objective and the 386-23 BGRFRN_BGRFRN and 485-20 BGRFRN_BGRFRN filter sets, for nuclei and MLKL phosphorylation, respectively. The image sets were analyzed using the Compartmental Analysis Bioapplication software (Cellomics). The level of MLKL phosphorylation was quantified as MEAN_CircRingAvglntenRatio. The maximal inhibitory response was defined by the activity induced by Neels (CAS #: 852391-15-2, 6.25 μM). […] The data were fitted using the 4-parameter logistic equation to calculate the IC50 and Ymax values.

| Molecule | IC50 | IC50 (Homo sapiens) |
| --- | --- | --- |
| CNC(=O)c1n[nH]c2cc(-c3cnc(OC)c(C(=O)N[C@H](C)c4cc(OC(F)(F)F)ccc4F)c3)ccc12 [Example 216, 6-(5-{[(1R)-1-[2-fluoro-5-(trifluoro-methoxy)phenyl](2,2,2-deutero)-ethyl]carbamoyl}-6-(deutero)meth-oxypyridin-3-yl)-N-(deutero)methyl-1H-indazole-3-carboxamide] | 0.03 µM | – |
| CNC(=O)c1n[nH]c2cc(-c3cnc(OC)c(C(=O)NC[C@H]4C[C@@H]4c4ccc(F)cc4)c3)ccc12 [Example 43, 6-[5-({[(1S,2S)-2-(4-fluoro-phenyl)cyclopropyl]methyl}-carbamoyl)-6-methoxypyridin-3-yl]-N-methyl-1H-indazole-3-carboxamide] | 0.099 µM | – |
| [2H]C([2H])([2H])NC(=O)c1n[nH]c2cc(-c3cnc(OC([2H])([2H])[2H])c(C(=O)N[C@H](C)c4ccccc4C(F)(F)F)c3)ccc12 [Example 219, 6-[6-(deutero)methoxy-5-{[(1R)-1-[2-(trifluoromethyl)phenyl]ethyl]-carbamoyl}pyridin-3-yl]-N-(deutero)-methyl-1H-indazole-3-carboxamide] | – | 0.018 µM |
| [2H]C([2H])([2H])Oc1ncc(-c2ccc3c(C(=O)NC)n[nH]c3c2)cc1C(=O)N[C@H](C)c1cccc(OC(F)(F)F)c1 [Example 14, (R)-6-(6-methoxyd3-5-((1-(3-(trifluoromethoxy)phenyl)ethyl)carbamoyl)pyridin-3-yl)-N-methyl-1H-indazole-3-carboxamide] | – | 0.037 µM |
| [2H]C([2H])([2H])Oc1ncc(-c2ccc3c(C(=O)NC)n[nH]c3c2)cc1C(=O)N[C@@H](C)c1cc(C(F)(F)F)ccc1F [Example 32, 6-(5-{[(1S)-1-[2-fluoro-5-(trifluoromethyl)phenyl]ethyl]-carbamoyl}-6-(deutero)meth-oxypyridin-3-yl)-N-methyl-1H-indazole-3-carboxamide] | – | 0.019 µM |
| N-[(1,1,2,2,2-deutero)ethyl]-6-(5- {[(1R)-1-[2-fluoro-5-(trifluoro- methyl)phenyl]ethyl]carbamoyl}-6- (deutero)methoxypyridin-3-yl)-1H- indazole-3-carboxamide [Example 227] | 0.069 µM | – |
| [2H]C([2H])([2H])Oc1ncc(-c2ccc3c(C(=O)NC4CC4)n[nH]c3c2)cc1C(=O)NC(C)c1cccc(OC(F)(F)F)c1 (stereo not drawn) [Example 197, N-cyclopropyl-6-[6-(deutero)-methoxy-5-({1-[3-(trifluorometh-oxy)phenyl]ethyl}carbamoyl)-pyridin-3-yl]-1H-indazole-3-carboxamide] | – | 0.052 µM |
| [2H]C([2H])([2H])Oc1ncc(-c2ccc3c(C(=O)NC)n[nH]c3c2)cc1C(=O)N[C@H](C)c1cc(OC(F)(F)F)ccc1F [Example 30, 6-(5-{[(1R)-1-[2-fluoro-5-(tri-fluoromethoxy)phenyl]ethyl]-carbamoyl}-6-(deutero)methoxy-pyridin-3-yl)-N-methyl-1H-indazole-3-carboxamide] | – | 0.048 µM |
| COc1ncc(-c2ccc3c(C(=O)NC4CC4)n[nH]c3c2)cc1C(=O)NCc1ccccc1OC(F)(F)F [Example 174, N-cyclopropyl-6-[6-methoxy-5-({[2-(trifluoromethoxy)phenyl]-methyl}carbamoyl)pyridin-3-yl]-1H-indazole-3-carboxamide] | – | 0.014 µM |
| CNC(=O)c1n[nH]c2cc(-c3cnc(OC)c(C(=O)N[C@H]4CC[C@@H](c5ccccc5)C4)c3)ccc12 [Example 67, 6-(6-methoxy-5-{[(1S,3R)-3-phenylcyclopentyl]carbamoyl}-pyridin-3-yl)-N-methyl-1H-indazole-3-carboxamide] | – | 0.039 µM |
| [2H]C([2H])([2H])Oc1ncc(-c2ccc3c(C(=O)NC)n[nH]c3c2)cc1C(=O)N[C@H](c1cc(OC(F)(F)F)ccc1F)C([2H])([2H])[2H] [Example 10, (S)-6-(5-((1-(2-fluoro-5-(trifluoromethoxy)phenyl)ethyl-2,2,2-d3)carbamoyl)-6-(methoxy-d3)pyridin-3-yl)-N-methyl-1H-indazole-3-carboxamide] | – | 0.0064 µM |
| CNC(=O)c1n[nH]c2cc(-c3cnc(OC)c(C(=O)NCC4CC4c4cccc(F)c4)c3)ccc12 (stereo not drawn) [Example 49, 6-[5-({[2-(3-fluorophenyl)-cyclopropyl]methyl}carbamoyl)-6-methoxypyridin-3-yl]-N-methyl-1H-indazole-3-carbox-amide] | 0.021 µM | – |
| [2H]C([2H])([2H])Oc1ncc(-c2ccc3c(C(=O)NC)n[nH]c3c2)cc1C(=O)N[C@@H](c1cccc(OC(F)(F)F)c1)C([2H])([2H])[2H] [Example 11, (R)-6-(6-(methoxy-d3)-5-((1-(3-(trifluoromethoxy)phenyl)ethyl-2,2,2-d3)carbamoyl)pyridin-3-yl)-N-methyl-1H-indazole-3-carboxamide, TFA] | – | 0.223 µM |
| CNC(=O)c1n[nH]c2cc(-c3cnc(OC)c(C(=O)N[C@@H]4C[C@H]4c4ccccc4)c3)ccc12 [Example 45, 6-(6-methoxy-5-{[(1R,2S)-2-phenylcyclopropyl]carbamoyl}-pyridin-3-yl)-N-methyl-1H-indazole-3-carboxamide] | – | 0.005 µM |
| CNC(=O)c1[nH]nc2cc(-c3cnc(OC)c(C(=O)NC[C@@H]4C[C@H]4c4ccc(F)cc4)c3)ccc12 [Example 70, 6-[5-({[(1R,2R)-2-(4-fluoro-phenyl)cyclopropyl]methyl}-carbamoyl)-6-methoxypyridin-3-yl]-N-methyl-2H-indazole-3-carboxamide] | – | 0.036 µM |
| COc1ncc(-c2ccc3c(C(=O)NC(C)C)n[nH]c3c2)cc1C(=O)NCc1ccccc1OC(F)(F)F [Example 179, 6-[6-methoxy-5-({[2-(trifluoro-methoxy)phenyl]methyl}carbam-oyl)pyridin-3-yl]-N-(propan-2-yl)-1H-indazole-3-carboxamide] | – | 0.073 µM |
| CNC(=O)c1n[nH]c2cc(-c3cnc(OC)c(C(=O)NCCC(O)c4ccc(F)c(F)c4)c3)ccc12 (stereo not drawn) [Example 39, 6-(5-{[3-(3,4-difluorophenyl)-3-hydroxypropyl]carbamoyl}-6-methoxypyridin-3-yl)-N-methyl-1H-indazole-3-carboxamide] | – | 0.008 µM |
| [2H]C([2H])([2H])Oc1ncc(-c2ccc3c(C(=O)NC)n[nH]c3c2)cc1C(=O)N[C@H](C)CC(=O)OC(C)(C)C [Example 29, tert-butyl (3R)-3-{[2-(deutero)-methoxy-5-[3-(methylcarbam-oyl)-1H-indazol-6-yl]pyridin-3-yl]formamido}butanoate] | – | 0.076 µM |
| CNC(=O)c1n[nH]c2cc(-c3cnc(OC)c(C(=O)NCC(C)(C)C(=O)OC(C)(C)C)c3)cc(F)c12 [Example 144, tert-butyl 3-({5-[4-fluoro-3-(methylcarbamoyl)-1H-indazol-6-yl]-2-methoxy-pyridin-3-yl}formamido)-2,2-dimethylpropanoate] | – | 0.1 µM |
| [2H]C([2H])([2H])Oc1ncc(-c2ccc3c(C(=O)NC)n[nH]c3c2)cc1C(=O)N[C@@H](c1cc(C(F)(F)F)ccc1F)C([2H])([2H])[2H] [Example 4, (R)-6-(5-((1-(2-fluoro-5-(trifluoromethyl)phenyl)ethyl-2,2,2-d3)carbamoyl)-6-(methoxy-d3)pyridin-3-yl)-N-methyl-1H-indazole-3-carboxamide, TFA] | – | 0.019 µM |
| CNC(=O)c1n[nH]c2cc(-c3cnc(OC)c(C(=O)N[C@H]4CCN(C(=O)OC(C)(C)C)C4)c3)ccc12 [Example 136, tert-butyl (3S)-3-{2-methoxy-5-[3-(methylcarbamoyl)-1H-indazol-6-yl]pyridine-3-amido}-pyrrolidine-1-carboxylate] | – | 0.48 µM |
| [2H]C([2H])([2H])Oc1ncc(-c2ccc3c(C(=O)NC)n[nH]c3c2)cc1C(=O)NC(C)c1ccccc1OC(F)(F)F (single isomer, unassigned) [Example 15, 6-(6-methoxyd3-5-((1-(2-(trifluoromethoxy)phenyl)ethyl)carbamoyl)pyridin-3-yl)-N-methyl-1H-indazole-3-carboxamide] | – | 0.0034 µM |
| COc1ncc(-c2ccc3c(C(=O)N[C@H](C)C4CC4)n[nH]c3c2)cc1C(=O)NCc1ccccc1OC(F)(F)F [Example 171, N-[(1R)-1-cyclopropylethyl]-6-[6-methoxy-5-({[2-(trifluoro-methoxy)phenyl]methyl}-carbamoyl)pyridin-3-yl]-1H-indazole-3-carboxamide] | – | 0.12 µM |
| CNC(=O)c1n[nH]c2cc(-c3cnc(OC)c(C(=O)NCC4CC4c4cccc(F)c4)c3)ccc12 (stereo not drawn) [Example 48, 6-[5-({[2-(3-fluorophenyl)-cyclopropyl]methyl}carbamoyl)-6-methoxypyridin-3-yl]-N-methyl-1H-indazole-3-carbox-amide] | 0.176 µM | – |
